| SMILES | melting point [°C] |
| --- | --- |
| O=C(O)Cc1cccc(NC(=O)NCC(=O)N2[C@@H](c3ccccc3O)CC[C@H]2c2ccccc2)c1 (racemic) | 165 |
| Cc1cccc(-c2[nH]nc(C(F)(F)F)c2-c2ccncc2)c1 | 237 to 239 |
| FC(F)(F)Oc1ccc(C=CC(C=Cc2ccc(OC(F)(F)F)cc2)=NNC2=NCCCCN2)cc1 | 184 to 186 |
| CN1C[C@H](CCCl)Oc2ncccc2C1=O | 61 to 62 |
| Cc1[nH]c(=O)c(C#N)c2c1CC(C)CC2 (centres undefined) | > 290 |
| CCOP(=O)(Cc1ccc(C(N)=O)cc1)OCC | 177 to 178 |
| COc1ccc2[nH]cc(C3=C(c4c[nH]c5ccc(OC)cc45)C(=O)N(C)C3=O)c2c1 | > 290 |
| O=C1C(Cl)=C(Cl)C(=O)c2ncccc21 | 221 to 222 |
| CCCOc1ccc(S(C)(=O)=O)cc1-c1nc2c(CC)nn(Cc3ccccn3)c2c(=O)[nH]1 | 209 to 211 |
| COC(=O)C(Cc1cccs1)NC(=O)[C@H](Cc1cccc2ccccc12)NC(=O)OCc1ccccc1 (mixture of isomers) | 140 to 141 |
| c1ccc2c(c1)Cc1sccc1CN2 | 86 |
| Cc1cc(C)c2cccc(OCc3c(Cl)ccc(S(=O)(=O)N4CCC[C@H]4C(=O)N4CCN(C(=O)c5ccc(C(N)=NO)cn5)CC4)c3Cl)c2n1 | 148 to 150 |
| Oc1cnccc1CCCOc1cccnc1Cc1cccc(Br)c1 | 138 to 139 |
| CC(C)c1ccccc1Sc1c(O)cc(-c2ccc(OCc3ccccc3)cc2)oc1=O | 163 to 165 |
| COc1ccc(Nc2cccc3c2C(=O)N([C@@]2(C)CCC(=O)NC2=O)C3=O)c(OC)c1 | 255 to 257 |
| O=C(NC(c1ccccc1)c1cc2ccncc2[nH]1)c1ccccc1 (centres undefined) | 206 to 208 |
| CSC(=N)NS(=O)(=O)c1c(Cl)sc(Cl)c1Br | 113 to 115 |
| CC(C)COC(=O)/C=C/C1NC(=O)CN1C(=O)OCc1ccccc1 (centres undefined) | 97 to 100 |
| O=C1C=C(NC(=O)C(=O)c2cn(Cc3cccc(Br)c3)c3ccccc23)CO1 | 278 to 280 |
| CCCCCC(C)N(CCCC)c1ccc(C2=C(C#N)C(=C(C#N)C#N)NC2=O)cc1 (centres undefined) | 180 |
| CCOC(=O)c1ccc(NCCOc2cccc3c2CCCC3)cc1 | 133 to 135 |
| CCCc1nc(Br)c(C(=O)O)n1Cc1ccc(-c2ccccc2S(=O)(=O)NC(=O)NCc2ccccc2)cc1 | 128 |
| O=C(O)CCC(CC=Cc1cccc(Cl)c1)(C(=O)C=Cc1ccc(Cl)cc1)c1ccccc1 (centres undefined) | 65 to 105 |

| SMILES | melting point [°C] |
| --- | --- |
| CC(C)(C)c1ccccc1COc1ccc(N)cn1 | 147 to 149 |
| O=C(Nc1ccc2[nH]c(C(F)(F)F)nc2c1)NC12CC3CC(CC(C3)C1)C2 | 189 to 192 |
| CN1C(=O)C(c2ccc(OCCCCBr)cc2)Sc2cc(Cl)ccc21 (centres undefined) | 70 to 72 |
| O=P1(c2ccccc2)c2ccccc2CN1c1ccccc1 (centres undefined) | 227 to 229 |
| COC(=O)c1cc(O)cc(Cl)c1O | 126 |
| CCCCc1nc(O)cc(CC(=O)OC)n1 | 83 to 85 |
| FC(F)(F)c1ccc(C(Cl)=NN=Cc2ccccc2)cc1 | 95 to 96 |
| N#CCCNC(=O)c1cccc(-c2ccc3ccn(Cc4ccc(Cl)cc4Cl)c3n2)c1 | 186 to 187 |
| O=C1NC(=O)C(Cc2ccc(SCCc3ccccc3)cc2)S1 (centres undefined) | 58 to 65 |
| COc1cccc2c1C(=O)C(CC=O)C2 (racemic) | 102 |
| O=c1ccn([C@H]2[C@H](O)[C@H](O)[C@@H](CO)C23CC3)c(=O)[nH]1 | 114 to 116 |
| CCCC[C@H](NC(=O)[C@H](CC(C)C)NC(=O)c1ccc(F)c(F)c1)C(=O)CSCc1ccco1 | 94 to 100 |
| CC1CCN(Cc2cccc(OCCCNS(=O)(=O)CCNc3ccc(Cl)c(Cl)c3)c2)CC1 | 130 to 135 |
| CCCNC(=O)c1ccc(-c2ccc3nnn(Cc4ccc5ncccc5c4)c3n2)cc1Cl | 128 to 130 |
| CC(C)OC(=O)Nc1cccc(O)c1 | 75 to 77 |
| O=C(O)c1cc(-c2ccc(OCc3ccccc3)cc2)nn1Cc1ccccc1 | 207 to 208 |
| CCC1c2cccn2-c2ccc(F)cc2N1C(=O)c1ccc(OC)cc1OC (centres undefined) | 131 to 132 |
| CC(C)(C)c1cc(C(=O)OCc2ccccc2)cc(C(C)(C)C)c1O | 80 to 83 |
| CCOc1ccccc1C=C1CCc2c1nc1ccc(C(=O)O)cn1c2=O | 328 to 332 |
| Cc1cc(-c2ncn3c(C(F)(F)F)cc(-c4cccc(C(F)(F)F)c4)nc23)ccn1 | 234 |
| CC(C)Cn1c(-c2ccccc2)nc2cnc3ccccc3c21 | 139 to 140 |
| O=C(O)Cc1cccc(F)c1OCCCc1cn(-c2ccc(C(F)(F)F)cn2)nc1C1CCCCC1 | 149 to 150 |
| COc1ccc(Nc2nc3ccccc3c3[nH]c(C4CCCC4)nc23)cc1 | 106 to 107 |

| SMILES | melting point [°C] |
| --- | --- |
| CCc1ccc(CCc2ccccc2NC=O)nc1 | 62 to 63.5 |
| O=C1C=c2c(c3c(c4[nH]c5ccccc5c24)Cc2ccccc2-3)=N1 | 275 to 280 |
| O=S(=O)(O)c1ccc(Nc2ncnc3ccc(Cl)cc23)cc1 | > 300 |
| Cc1c(C(=O)NC2C3(C)CCC(C3)C2(C)C)c2ccc(Cl)c(Cl)c2n1CCCNS(C)(=O)=O (centres undefined) | 150 to 154 |
| Nc1ccc(-c2ccc3nnn(Cc4ccc5ncccc5c4)c3n2)cn1 | 194 to 197 |
| Cc1cccc(NC(=O)NC2N=C(c3ccccc3F)c3ccccc3N(Cc3nccc4ccccc34)C2=O)c1 (racemic) | 145 to 147 |
| CC(CCC(=O)C(C)(C)OO)C1CCC2C3CC=C4CC(OC5CCCCO5)CCC4(C)C3CCC12C (centres undefined) | 130 to 131 |
| CS(=O)(=O)c1ccc(Oc2ccc([N+](=O)[O-])cc2[N+](=O)[O-])cc1 | 176 to 177 |
| CCCc1nn(CC)c(C(N)=O)c1N | 81 to 83 |
| S=C(Nc1ccccc1)N1CCN(c2nc3cccccc-3n2)CC1 | 267 to 269 |
| Cc1nc(-n2cnn(CC(=O)Nc3ccc(Cl)cc3)c2=O)sc1C(=O)NCc1cccnc1 | 255 to 256 |
| CCOC(=O)c1cccnc1Oc1cncc(Cl)c1 | 65 to 69 |
| COC(=O)c1cc(C(=O)c2cccc(Cl)c2)n(C)c1 | 127 |
| O=C(CSc1cccc(Br)c1)c1ccc2[nH]c3ncc(Cl)cc3c2c1 | 229 to 230 |
| Cc1noc(-c2cccc(Oc3ccc4c(c3)S(=O)(=O)NCCO4)c2)n1 | 140 |
| CCN1C(C(=O)Nc2ccccc2)=C(O)c2ccc3ccccc3c2S1(=O)=O | 245 to 247 |
| COc1cc(CC(=O)O)ccc1OCc1nc(-c2ccccc2)oc1C | 176 to 177 |
| O=C1C=CC(=O)c2cc(C(F)(F)F)c(C(F)(F)F)cc21 | 91 to 94 |
| CCCCCCCCCCCCCCCCCCOc1cc(OCc2ccccc2)cc(C(=O)O)c1 | 97 to 99 |
| CC(C)(C)OC(=O)NC1CCN(C/C=C\CC(c2ccccc2)c2ccccc2)CC1 | 105 to 108 |
| CN1C(=O)CN(NC(=O)CNC(=O)OCc2ccccc2)C(c2ccccc2)c2cc(Cl)ccc21 (centres undefined) | 184 to 190 |
| O=S(=O)(c1ccc(Cl)cc1)C(Cc1ccccn1)c1cc(F)ccc1F (centres undefined) | 105 to 107 |
| NCC(O)COc1ccc(-c2ccccc2)cc1 (centres undefined) | 138 to 147 |

From a melting point compilation (Tetko et al.; mined from patent text by program, amines drawn as free bases though some values may be those of a salt)
